Measurements published in US20250205275A1, “POLYMERIC IRON BINDING COMPOSITIONS AND METHODS OF USE FOR TREATING DISEASES ASSOCIATED WITH EXCESS DAMAGING REACTIVE IRON” (Fe Pharmaceuticals (Canada) Inc., priority 2022, published 2025).
Marks after values point to notes of the source that are not given here.

What was measured:
[1] = system: Gram negative bacteria; conditions: cited from earlier work
[2] = cited from earlier work
[3] = system: Gram positive bacteria; conditions: cited from earlier work
[4] = system: fungi; conditions: cited from earlier work
[5] = system: microbial growth; conditions: cited from earlier work
[6] = Resistance of chelator-bound iron(III) to chemical reduction by dithionite; type: physicochemical; conditions: 0.1 M MOPS, pH 7.4
From the text: Chemical reduction of iron from Fe(III) to Fe(II) is part of the chemical reductive cycling of iron that drives ROS production in and around cells and also facilities removal of iron from intracellular stores for use elsewhere in the body. Generally iron in extracellular compartments of the body is in the Fe(III) form this helping to limit iron related toxic reactions as free Fe(II) would quickly oxidize to Fe(III) and this could drive, for example, ROS production. Thus, the relative ability of an iron chelator to hold Fe(III) and resist its reduction to Fe(II) would have benefits. Correspondingly, the relative chemical reducibility of Fe(III) to Fe(II) as bound by deferiprone, MAHMP and DIBI was tested. The different iron loaded chelators were first prepared so that iron only sufficient to ensure initial presence of fully coordinated iron(III) was used, i.e. a ratio of three chelator molecules of either deferiprone or MAHMP to each iron(III) atom present. DIBI with its measured MAHMP content was also similarly loaded with iron added just sufficient to satisfy its MAHMP iron binding sites on a similar basis. The iron-chelates were then reacted with dithionite (DT, [S2O4]^2−) a chemical reductant for iron and the relative changes in absorbance intensity at 460 nm was used to monitor for iron reduction with results as shown in FIG. 2.

[7] = Iron(III) binding affinity by NaOH titration with UV-vis spectra (HypSpec2014); conditions: 25° C.
Description: The titrations were carried out under a wet nitrogen atmosphere to avoid concentration changes due to evaporation. Aliquots of each complex solution were taken periodically during the titration and the UV-vis spectra of the aliquots were collected as a batch once the titration was completed. The pH range studied spanned the equilibrium between bis and tris coordination for the ligands as these are the only two species expected at physiological pH. For Fe3-DIBI the spectra were collected 24 h after collecting the batch of aliquots. The spectra were processed using HypSpec2014 to determine the iron(III) binding affinity of […] and deferiprone (DFP) as reference as summarized in Table 7.

[8] = system: ferroptosis; conditions: cited from earlier work
[9] = in vivo; cited from earlier work
[10] = system: cells challenged with high-glucose; conditions: cited from earlier work
[11] = clinical trials; cited from earlier work
[12] = Approx, based on close analogue 36 and FBS0701; cited from earlier work
[13] = molecular target: T1, ferroportin (Homo sapiens, UniProt Q9NP59); conditions: clinical testing, advanced to phase II; cited from earlier work
T1 sequence (Q9NP59 1-571): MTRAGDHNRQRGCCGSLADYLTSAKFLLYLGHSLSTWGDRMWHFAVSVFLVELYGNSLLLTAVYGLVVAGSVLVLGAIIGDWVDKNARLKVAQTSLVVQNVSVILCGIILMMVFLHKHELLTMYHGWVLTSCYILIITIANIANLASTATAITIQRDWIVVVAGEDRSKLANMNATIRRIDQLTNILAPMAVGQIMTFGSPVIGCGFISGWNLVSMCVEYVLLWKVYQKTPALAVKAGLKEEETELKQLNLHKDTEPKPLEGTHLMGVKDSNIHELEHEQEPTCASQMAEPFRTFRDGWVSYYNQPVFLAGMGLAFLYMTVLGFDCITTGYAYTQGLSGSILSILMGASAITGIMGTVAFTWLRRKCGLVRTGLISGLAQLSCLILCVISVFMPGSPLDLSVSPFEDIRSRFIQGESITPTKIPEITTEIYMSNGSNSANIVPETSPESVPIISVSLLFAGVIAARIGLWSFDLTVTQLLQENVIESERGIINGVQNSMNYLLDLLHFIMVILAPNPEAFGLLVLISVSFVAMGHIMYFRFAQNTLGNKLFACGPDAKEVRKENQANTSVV

[14] = doxorubicin-induced mouse model; cited from earlier work

Row | SMILES | MIC Gram negative bacteria [1] | Hydrophobicity/ hydrophilicity log P [2] | MIC Gram positive bacteria [3] | MIC fungi [4] | Antimicrobial activity [5] | cell viability [10] | further results
1 | O=C(O)c1ccc(-n2nc(-c3ccccc3O)nc2-c2ccccc2O)cc1 [Deferasirox] | 133^m μM | 4.3 ^b | 21^l μM | 67^p μM | Low | – | –
2 | Cc1c(O)c(=O)ccn1C [Deferiprone] | 287^k μM | −0.8 ^b | 575^e μM | 1151^n μM | Very Low | – | reduction of bound iron(III) by dithionite (intensity of 460 nm band) [6]: readily reduced; Log β1 iron binding formation constant [7]: 15.01(1); Log β2 iron binding formation constant [7]: 27.5(7); Log β3 iron binding formation constant [7]: 36.7(1)
3 | CC(=O)N(O)CCCCCNC(=O)CCC(=O)N(O)CCCCCNC(=O)CCC(=O)N(O)CCCCCN [Deferoxamine] | >913^k μM | −3 ^b | >913^k μM | >228^n μM | Poor, | rescued cell viability | effect on ferroptosis [8]: suppression; infections in test animals [9]: fatal infections
4 | C=C(C)C(=O)NCCn1ccc(=O)c(O)c1C [MAHMP] | – | – | – | – | – | – | reduction of bound iron(III) by dithionite (intensity of 460 nm band) [6]: The same reaction was observed; Log β1 iron binding formation constant [7]: 15.01(1); Log β2 iron binding formation constant [7]: 27.9(1); Log β3 iron binding formation constant [7]: 38.22(6)
5 | COCCOCCOc1ccc(C2=N[C@@](C)(C(=O)O)CS2)c(O)c1 [SP-420] | – | −0.89 | – | – | – | – | renal toxicity [11]: undesirable renal toxicity; Fe binding constant log K [12]: 33.1-33.4
6 | O=C(NCc1ncccc1F)c1coc(CCNCCc2nc3ccccc3[nH]2)n1 [VIT-2763] | – | – | – | – | – | – | lowering serum iron levels [13]: good potential for lowering serum iron levels; toxicity [13]: low toxicity
7 | O=C([O-])CN(CC(=O)[O-])CC(=O)[O-].[Fe+3] [ferric-nitriloacetate (NTA), ferric-nitriloacetate] | – | – | – | – | – | – | effect on ferroptosis [8]: promote ferroptosis and renal carcinoma
8 | CCOC(=O)c1ccc(NC2CCCCC2)c(N)c1 [ferrostatin-1] | – | – | – | – | – | rescued cell viability | cardiac function [14]: improved cardiac function; mortality [14]: reduced mortality
9 | O=c1c(O)c(-c2ccc(O)c(O)c2)oc2cc(O)cc(O)c12 [quercetin] | – | – | – | – | – | rescued cell viability | –
